The source of these data is US9783513B2, “STAT3 inhibitors and their anticancer use” (Ohio State Innovation Foundation, priority 2012, dated 2017).

Structures are written as SMILES. Like-named read-outs stand apart in the source and are kept apart here.

Series [1] can be described thus: Toxicity assessment in tumor-free mice. Format: in vivo, mouse. The following applies: C57BL/6 mice, IP 5 or 10 mg/kg daily, 7 days. How it is done:
In order to provide preliminary data regarding potential toxicities from dosing of LY5, C57BL/6 tumor-free mice were treated with daily intraperitoneal (IP) injections of LY5 at 5 or 10 mg/kg for 7 days. […] Additionally, LY5 at a dose of 5 mg/kg via IP for 5 days inhibited growth of OS-1 tumor xenografts (90% tumor volume compared to baseline), while tumor in vehicle treated mice continued to grow (143% tumor volume compared to baseline).

A further series addresses T1, PLK3 (Homo sapiens, UniProt Q9H4B4).
T1 construct: purchased KINOMESCAN, San Diego, Calif
The series is described as follows: Kinase screening (KINOMESCAN), PLK3. It is filed as binding. The protocol: The potential off-target activity of a representative compound was assessed in a screen against 96 protein and lipid kinases (see FIGS. 56 and 60). The test compound, LY-5, was assessed at 1000 and 5000 nM concentration using in vitro kinase assays. The assays were carried out using standard techniques known to one skilled in the art (KINOMESCAN™, San Diego, Calif.). The data in FIG. 60 show the % inhibition for the tested concentrations of LY-5 in the panel of kinases assessed. The interaction map provides a visualization of the relationship of these inhibition data from FIG. 60 to various kinase families.

For series [2], the system named is human sarcoma cell line RD2. Kind of series: Cell viability (MTT) assay, RD2. Format: cell-based. The protocol: Human sarcoma cell lines (RD2, RH30, U2OS) were seeded in 96-well plates at a density of 3,000 cells per well. The cells were incubated at 37° C. for a period of 24 hours. Different concentrations of LY-5 (0.1-10 μM), LY-3 (0.1-20 μM), and LLL12 (0.1-10 μM) prepared as a 20 mM stock solution in sterile DMSO were added in triplicate to the plates in the presence of 10% FBS. 3-(4,5-Dimethylthiazolyl)-2, 5-diphenyltetrazoliumbromide (MTT) was added to evaluate cell viability. The absorbance was read at 595 nm. IC50 values were determined using SigmaPlot 9.0 Software (Systat Software, Inc., San Jose, Calif.).
Alternatively, cells were seeded in 96-well plates in triplicate at a density of 3,000 cells per well and given 24 hours to adhere. Cells were then treated with varying concentrations of the inhibitors in the presence of 10% FBS. The cells were incubated for 72 hours at 37° C. 25 μl of MTT dye (Sigma, #M5655) was added to each sample and incubated for 3.5 hours. After this, 100 μl of N,N-dimethylformamide (Sigma, #D4551) solubilization solution was added to each well. The absorbance at 450 nm was read the following day. Half-Maximal inhibitory concentrations (IC50) were determined using Sigma Plot 9.0 software (Systat Software Inc.).
Table 7 below lists specific compounds as well as experimentally determined STAT3 activity in a cell-based assay. The STAT3 activity was determined using the cell viability assays with human sarcoma cell lines (RD2, RH30, U2OS) as described above. The compound reference numbers (“Ref. No.”) in Table 7 correspond to the compound numbers used in Table 3.

For series [3], the system named is VEGF induced vessels in Matrigel plugs. The series is described as follows: Vascularization of […] plugs in vivo. Also on record: species or system mouse. The protocol: To further characterize anti-angiogenetic properties of LY5 in vivo, we performed murine […]™ plug experiments. PBS was used as a negative control, and VEGF (100 ng/mL) as a positive control. […]™ was injected subcutaneously into CB17SC scid−/− female mice, forming semi-solid plugs. Animals received treatment of LY5 (5 mg/kg) I.P. intraperitoneal (i.p.) injection immediately after the […]™ injection and daily for 7 days. On day 7, plugs were excised under anesthesia, fixed in PBS-buffered 10% formalin containing 0.25% glutaraldehyde, and were processed for H&E and Masson's Trichrome staining. Vascular identity of the infiltrating cells was established with CD34 immunostaining. The regions containing the most intense area of neovascularization (“hotspots”) were chosen for analysis. Eight hotspots were identified for each Matrigel […]™ or tumor section. The ImagePro Plus analysis system (Media Cybernetics Inc, Bethesda, Md.) was used to quantify the percentage of area occupied by the vessel-like structures in each field. The mean±SE from each group were compared. The negative control was obtained by tissue staining with secondary antibody only.

A further series deals with STAT1. Kind of series: Western blot, STAT1 / Y701 phosphorylation. It is filed as cell-based, human. How it is done:
RH30 cells were treated with DMSO, LY-5 (0.25-1 μM) and LY-3 (0.5-2.5 μM) prepared as a 20 mM stock solution in sterile DMSO at 60% to 80% confluence in the presence of 10% FBS for 24 hours. The sarcoma cell line EW8 was treated with DMSO and LY-5 (0.5-2.5 μM) prepared as a 20 mM stock solution in sterile DMSO at 60% to 80% confluence in the presence of 10% FBS for 24 hours. MCF-7 cells and DAOY cells were treated with DMSO, 25-50 ng/ml of IL-6, LY-5 (0.25-1 μM) or LY-3 (0.5-2.5 μM) prepared as a 20 mM stock solution in sterile DMSO, protein expressions of P-STAT3 (Tyr705) and STAT3 were tested. DAOY cells were treated with DMSO, 50 ng/ml of IFN-γ, LY-5 (1-5 μM) prepared as a 20 mM stock solution in sterile DMSO, protein expressions of P-STAT3 (Tyr705) and STAT3 were tested. […]
The cells were harvested and lysed in cold radioimmunoprecipitation assay (RIPA) lysis buffer containing […] and phosphatase inhibitor cocktail, and were subjected to SDS-PAGE. […] Membranes were analyzed using Enhanced Chemiluminescence Plus reagents and scanned with the Storm Scanner (Amersham Pharmacia Biotech, Inc., Piscataway, N.J.).
MCF-7 breast cancer cells were seeded in 10 cm plates and allowed to adhere overnight. […] The cells were harvested after 30 minutes and analyzed by Western blot.

T1 sequence (Q9H4B4 whole entry): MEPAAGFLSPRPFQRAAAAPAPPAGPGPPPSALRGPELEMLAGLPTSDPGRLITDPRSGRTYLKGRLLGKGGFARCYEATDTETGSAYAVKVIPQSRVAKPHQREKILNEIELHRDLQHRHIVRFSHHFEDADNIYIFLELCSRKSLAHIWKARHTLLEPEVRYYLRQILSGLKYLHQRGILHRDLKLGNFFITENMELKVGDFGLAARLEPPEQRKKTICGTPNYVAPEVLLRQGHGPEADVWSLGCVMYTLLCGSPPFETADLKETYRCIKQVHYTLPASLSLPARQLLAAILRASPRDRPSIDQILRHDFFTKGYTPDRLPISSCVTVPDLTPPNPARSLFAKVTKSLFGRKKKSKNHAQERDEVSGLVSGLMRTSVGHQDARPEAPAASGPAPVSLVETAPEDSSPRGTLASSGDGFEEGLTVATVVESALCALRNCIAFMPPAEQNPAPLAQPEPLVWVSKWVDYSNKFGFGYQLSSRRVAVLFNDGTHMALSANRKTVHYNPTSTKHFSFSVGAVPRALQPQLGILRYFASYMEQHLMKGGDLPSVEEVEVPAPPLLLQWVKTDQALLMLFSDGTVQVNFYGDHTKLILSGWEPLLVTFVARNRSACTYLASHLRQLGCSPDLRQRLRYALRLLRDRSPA

With `NS(=O)(=O)c1cccc2c1C(=O)C=C(Nc1cccnc1)C2=O` [LY-5, 5,8-dioxo-6-(pyridin-3-ylamino)-5,8-dihydronaphthalene-1-sulfonamide], in series [1], the “erythrocyte, leukocyte and platelet parameters” value is listed as “no differences”; the “organ weights as a percentage of body weight” value is listed as “did not vary significantly”. Moreover, the “histologic evaluation of organs” value in series [1] (n=2) was “no abnormalities”. The inhibition result at PLK3 (at 1000 nM) is on record as “no inhibition”. The “activity against PLK3” value on PLK3 (at 5 μM, FIG. 60) is “some activity”. Moreover, the inhibition at 5 µM against PLK3 (at 5000 nM) came to 72%. Also, the IC50 in series [2] (Table 7, read-out: IC50 RD2) was 1.39 µM. For the same compound, in series [2] (Table 8, read-out: IC50 values vs. cell lines, RD2), the half-maximal inhibitory concentration (IC50) stood at 1.39 µM. Besides, the “number of CD34 positive vessels in Matrigel plugs” value in series [3] (5 mg/kg daily, day 7) is “decrease in number of vessels”. Moreover, in series [3] (5 mg/kg dose level, VEGF plugs), the decrease of vessel formation in Matrigel plugs amounted to 85%. Also, the “IFN-γ induced STAT1 phosphorylation at Y701” value with STAT1 (DLD1, 0-2.5 μM, 2 h) is “does not inhibit”. In addition, the “STAT1 expression and phosphorylation” value in the series on STAT1 (MCF-7, OSM 50 ng/mL) is reported as “effect the fold change of STAT1”.

For orientation: inhibition means the change of the read-out against control, counted positive when it falls. The low end stands for a response near the control, the high end for a response far below the control. The IC50 is the point on the concentration scale where inhibition reaches its midpoint.
